Results published in the supplement of paper PMC7840683.
± gives the standard deviation of the averaged measurements.

Tested on: HepaRG
Assay: LDH release cytotoxicity, % of total lysis control; higher = more cytotoxic
Details: 48 h
Summary of the method: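 Eight-point half-log series of test chemicals, the highest at 100 µM, were given in duplicate for 48 h to single-lot HepaRG cells on collagen I-coated 96-well plates in serum-free induction medium with 0.5% DMSO. A Tecan Safire read resorufin fluorescence from CytoTox-ONE as a measure of LDH in 50 µL spent medium, with 0.1% Triton X in total lysis wells. Percent cytotoxicity was normalized to on-plate vehicle and total lysis controls and averaged over the duplicates.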

CCCCC(CC)COC(=O)CCCCCCCCC(=O)OCC(CC)CCCC (configuration not stated) [Bis(2-ethylhexyl) decanedioate]
Details | LDH release cytotoxicity [%]
0.03162 µM | -11.5 ± 0.13
0.1 µM | -10.5 ± 0.46
0.3162278 µM | -10.7 ± 0.93
1 µM | -10.2 ± 0.19
3.16228 µM | -10.2 ± 0.27
10 µM | -10.1 ± 1.7
31.6228 µM | -9.5 ± 0.95
100 µM | -8.97 ± 0.81

CCCCC(CC)COC(=O)CCCCCCCC(=O)OCC(CC)CCCC (configuration not stated) [Bis(2-ethylhexyl) nonanedioate]
Details | LDH release cytotoxicity [%]
0.03162 µM | -1.88 ± 0.055
0.1 µM | -2.868 ± 0.0068
0.3162278 µM | -2.85 ± 0.81
1 µM | -3 ± 0.21
3.16228 µM | -2.9 ± 0.15
10 µM | -2.46 ± 0.2
31.6228 µM | -2.95 ± 0.69
100 µM | -1.1 ± 0.36

CCCCC(CC)COC(=O)c1ccc(C(=O)OCC(CC)CCCC)cc1 (configuration not stated) [Bis(2-ethylhexyl) terephthalate]
Details | LDH release cytotoxicity [%]
0.03162 µM | -2 ± 1.1
0.1 µM | -1.13 ± 0.62
0.3162278 µM | -1.76 ± 0.63
1 µM | -2.5 ± 0.76
3.16228 µM | -2.35 ± 0.77
10 µM | -2.12 ± 0.71
31.6228 µM | -2.26 ± 0.82
100 µM | -1.14 ± 0.6

CCCCC(CC)COC(=O)CCCCC(=O)OCC(CC)CCCC (configuration not stated) [Bis(2-ethylhexyl)hexanedioate]
Details | LDH release cytotoxicity [%]
0.03162 µM | -2.21 ± 0.34
0.1 µM | -2.881 ± 0.019
0.3162278 µM | -3.04 ± 0.8
1 µM | -2.88 ± 0.9
3.16228 µM | -2.66 ± 0.66
10 µM | -2.86 ± 0.26
31.6228 µM | -2.54 ± 0.088
100 µM | -1.41 ± 0.75

Oc1ccc(C(c2ccc(O)cc2)(C(F)(F)F)C(F)(F)F)cc1 [Bisphenol AF]
Details | LDH release cytotoxicity [%]
0.03162 µM | -1.31 ± 0.014
0.1 µM | -1.4 ± 0.37
0.3162278 µM | -1.16 ± 0.18
1 µM | -1.45 ± 0.031
3.16228 µM | -0.575 ± 0.055
10 µM | -1.57 ± 0.15
31.6228 µM | -1.62 ± 0.47
100 µM | 83.2 ± 2.1

CC(C)(c1ccc(O)cc1)c1ccc(O)cc1 [Bisphenol A]
Details | LDH release cytotoxicity [%]
0.03162 µM | -1.32 ± 0.3
0.1 µM | -0.356 ± 1.2
0.3162278 µM | -1.1 ± 0.41
1 µM | -1.37 ± 0.015
3.16228 µM | -0.158 ± 0.45
10 µM | 0.439 ± 0.41
31.6228 µM | 0.463 ± 0.27
100 µM | 1.47 ± 1.2

CCC(C)(c1ccc(O)cc1)c1ccc(O)cc1 [Bisphenol B]
Details | LDH release cytotoxicity [%]
0.03162 µM | -0.0728 ± 0.78
0.1 µM | 0.29 ± 0.38
0.3162278 µM | 0.714 ± 0.49
1 µM | 2.34 ± 1.5
3.16228 µM | 1.11 ± 0.43
10 µM | 1.29 ± 0.37
31.6228 µM | 1.29 ± 0.25
100 µM | 4.62 ± 1.9

OB(O)O [Boric acid (H3BO3)]
Details | LDH release cytotoxicity [%]
0.03162 µM | -0.989 ± 0.041
0.1 µM | -0.753 ± 1.6
0.3162278 µM | 0.0737 ± 1.3
1 µM | -0.582 ± 0.41
3.16228 µM | -0.954 ± 0.45
10 µM | -0.232 ± 0.15
31.6228 µM | 0.368 ± 0.65
100 µM | 0.851 ± 0.63

O=C(Nc1ccccc1-c1ccc(Cl)cc1)c1cccnc1Cl [Boscalid]
Details | LDH release cytotoxicity [%]
0.0332039 µM | -0.385 ± 0.58
0.105 µM | -0.471 ± 1.4
0.332039 µM | -0.417 ± 1.1
1.05 µM | -1.35 ± 1.3
3.32039 µM | -1.2 ± 0.15
10.5 µM | -0.348 ± 0.85
33.2039 µM | -0.586 ± 0.92
105 µM | 0.89 ± 1.2

CCC(C)N1C(=O)N=C(C)C(Br)C1=O (configuration not stated) [Bromacil]
Details | LDH release cytotoxicity [%]
0.031623 µM | -0.635 ± 0.33
0.1 µM | -3.85 ± 1.5
0.316228 µM | -3.85 ± 0.21
1 µM | -3.54 ± 0.72
3.16228 µM | -3.65 ± 0.22
10 µM | -2.46 ± 0.054
31.6228 µM | 0.888 ± 0.45
100 µM | 5.41 ± 1.2

N#Cc1cc(Br)c(O)c(Br)c1 [Bromoxynil]
Details | LDH release cytotoxicity [%]
0.0253 µM | -2.04 ± 0.26
0.08 µM | -2.14 ± 0.42
0.252982 µM | -2.16 ± 0.52
0.8 µM | -1.57 ± 0.33
2.52982 µM | -1.26 ± 0.39
8 µM | 0.434 ± 0.55
25.2982 µM | 0.49 ± 1.5
80 µM | 55.4 ± 0.62

O=[N+]([O-])C(Br)(CO)CO [Bronopol]
Details | LDH release cytotoxicity [%]
0.031623 µM | -1.83 ± 0.79
0.1 µM | -3.38 ± 2.4
0.316228 µM | -2.69 ± 1.3
1 µM | -3.3 ± 0.87
3.16228 µM | -3.31 ± 0.59
10 µM | -2.52 ± 1.9
31.6228 µM | -0.61 ± 0.22
100 µM | 0.628 ± 0.21

CC(C)N1C(=O)N(c2ccccc2)CSC1=NC(C)(C)C [Buprofezin]
Details | LDH release cytotoxicity [%]
0.03162 µM | -1.37 ± 0.98
0.1 µM | -1.93 ± 0.62
0.3162278 µM | -1.95 ± 0.58
1 µM | -2.46 ± 1.3
3.16228 µM | -2.17 ± 0.66
10 µM | -1.91 ± 0.48
31.6228 µM | -2.33 ± 0.99
100 µM | 11.8 ± 0.29

CS(=O)(=O)OCCCCOS(C)(=O)=O [Busulfan]
Details | LDH release cytotoxicity [%]
0.03162 µM | -1.48 ± 0.87
0.1 µM | -0.871 ± 0.9
0.3162278 µM | -1.32 ± 0.64
1 µM | -2.08 ± 0.32
3.16228 µM | -1.19 ± 0.19
10 µM | -0.461 ± 0.33
31.6228 µM | 0.385 ± 0.76
100 µM | 0.593 ± 0.42

CCCCOCN(C(=O)CCl)c1c(CC)cccc1CC [Butachlor]
Details | LDH release cytotoxicity [%]
0.03162 µM | 0.674 ± 1.6
0.1 µM | -0.43 ± 0.44
0.3162278 µM | -0.96 ± 0.72
1 µM | -0.4246 ± 0.0032
3.16228 µM | -0.143 ± 1.2
10 µM | 0.287 ± 2.1
31.6228 µM | 0.713 ± 0.79
100 µM | 2.96 ± 1.9

C=CCOC(=O)C(C)(C)OC(=O)c1cc(-n2c(=O)cc(C(F)(F)F)n(C)c2=O)ccc1Cl [Butafenacil]
Details | LDH release cytotoxicity [%]
0.0317809 µM | -1.79 ± 0.12
0.1005 µM | -0.9 ± 0.18
0.317809 µM | -0.684 ± 1.3
1.005 µM | -2.04 ± 0.66
3.17809 µM | -1.27 ± 0.17
10.05 µM | -0.764 ± 0.69
31.7809 µM | -0.16 ± 0.57
100.5 µM | 1.19 ± 0.75

CC(C)N(Cc1ccccc1)C(=O)C(C)(C)C [Butam]
Details | LDH release cytotoxicity [%]
0.03162 µM | -0.681 ± 0.21
0.1 µM | -1.54 ± 0.98
0.3162278 µM | -1.1 ± 0.59
1 µM | -0.413 ± 0.43
3.16228 µM | -0.189 ± 0.29
10 µM | 0.285 ± 0.9
31.6228 µM | 0.032 ± 0.83
100 µM | 0.934 ± 0.57

CCCC(=O)O [Butanoic acid]
Details | LDH release cytotoxicity [%]
0.03162 µM | 0.168 ± 0.2
0.1 µM | -0.77 ± 0.36
0.3162278 µM | -0.76 ± 0.38
1 µM | -1.47 ± 0.67
3.16228 µM | -0.676 ± 0.53
10 µM | -0.93 ± 0.85
31.6228 µM | -0.26 ± 0.0066
100 µM | -0.235 ± 0.085

CCC(C)Nc1c([N+](=O)[O-])cc(C(C)(C)C)cc1[N+](=O)[O-] (configuration not stated) [Butralin]
Details | LDH release cytotoxicity [%]
0.031623 µM | -1.24 ± 0.48
0.1 µM | -2.37 ± 1.2
0.316228 µM | -1.26 ± 1
1 µM | -1.89 ± 1.2
3.16228 µM | -2.08 ± 0.85
10 µM | -2.15 ± 1.1
31.6228 µM | -1.93 ± 1.3
100 µM | -1.58 ± 0.34
